Measured values as given in ChEMBL document CHEMBL1697692, “Developing structure-activity relationships for the prediction of hepatotoxicity” (Chem Res Toxicol, 2010).
Numbered stars: 1 amine (or outer) side, 2 acyl side, 3 side chain; on linkers, the order of the positions; unused ones are H or OH. Bridge positions count the residues as written; N and C are the ends. Square brackets hold non-standard residues; d marks the D form. Peptide text beside a SMILES is read from it. Adda = CO[C@@H](Cc1ccccc1)[C@@H](C)/C=C(C)/C=C/[C@H](N[*:1])[C@H](C)C(=O)[*:2]; dAsp(3S-Me) = C[C@H](C(=O)[*:3])[C@@H](N[*:1])C(=O)[*:2]; d(γGlu) = O=C(O)[C@@H](CCC(=O)[*:2])N[*:1]; NMeDha = C=C(NC)C(=O)O

System: Hepatotoxicity
Test: Literature-mined public compounds from Greene et al multi-species hepatotoxicity modelling dataset

SMILES | Hepatotoxicity
Sc1ncnc2nc[nH]c12 [MERCAPTOPURINE ANHYDROUS] | HH: Evidence of human hepatotoxicity
CN1CCCCC1CCN1c2ccccc2Sc2ccc([S+](C)[O-])cc21.O=S(=O)(O)c1ccccc1 (stereo not drawn) [MESORIDAZINE BESYLATE] | HH: Evidence of human hepatotoxicity
C#C[C@]1(O)CC[C@H]2[C@@H]3CCc4cc(OC)ccc4[C@H]3CC[C@@]21C [MESTRANOL] | HH: Evidence of human hepatotoxicity
CC(=O)Nc1cccc(O)c1 [METACETAMOL] | WE: Weak evidence (<10 case reports) of human hepatotoxicity
CC(C)NCC(O)c1cc(O)cc(O)c1.CC(C)NCC(O)c1cc(O)cc(O)c1.O=S(=O)(O)O (stereo not drawn) [METAPROTERENOL SULFATE] | HH: Evidence of human hepatotoxicity
CN(C)C(=N)N=C(N)N [METFORMIN] | WE: Weak evidence (<10 case reports) of human hepatotoxicity
C=C1c2cccc(O)c2C(=O)C2=C(O)[C@]3(O)C(=O)C(C(N)=O)=C(O)[C@@H](N(C)C)[C@@H]3[C@@H](O)[C@H]12.Cl [METHACYCLINE HYDROCHLORIDE] | HH: Evidence of human hepatotoxicity
CN(Cc1cnc2nc(N)nc(N)c2n1)c1ccc(C(=O)N[C@@H](CCC(=O)O)C(=O)O)cc1 [METHOTREXATE] | HH: Evidence of human hepatotoxicity
COc1ccc(OC)c(C(O)C(C)N)c1.Cl (stereo not drawn) [METHOXAMINE HYDROCHLORIDE] | NE: No evidence of hepatotoxicity in any species
COCC(=O)O [METHOXYACETIC ACID] | AH: Evidence for animal hepatotoxicity but not tested in humans
C[C@](N)(Cc1ccc(O)c(O)c1)C(=O)O [METHYLDOPA] | HH: Evidence of human hepatotoxicity
CC[C@@H](CO)NC(=O)[C@@H]1C=C2c3cccc4[nH]cc(c34)C[C@H]2N(C)C1.O=C(O)/C=C\C(=O)O [METHYLERGONOVINE MALEATE] | NE: No evidence of hepatotoxicity in any species
COC(=O)C(c1ccccc1)C1CCCCN1 (stereo not drawn) [METHYLPHENIDATE] | HH: Evidence of human hepatotoxicity
CC[C@@H](CO)NC(=O)[C@@H]1C=C2c3cccc4c3c(cn4C)C[C@H]2N(C)C1.O=C(O)/C=C\C(=O)O [METHYSERGIDE MALEATE] | NE: No evidence of hepatotoxicity in any species
Cc1ccccc1N1C(=O)c2cc(S(N)(=O)=O)c(Cl)cc2NC1C (stereo not drawn) [METOLAZONE] | HH: Evidence of human hepatotoxicity
Cc1ncc([N+](=O)[O-])n1CCO [METRONIDAZOLE] | HH: Evidence of human hepatotoxicity
CC1(C)S[C@@H]2[C@H](NC(=O)[C@H](NC(=O)N3CCN(S(C)(=O)=O)C3=O)c3ccccc3)C(=O)N2[C@H]1C(=O)[O-].[Na+] [MEZLOCILLIN SODIUM] | HH: Evidence of human hepatotoxicity
CN1CCN2c3ccccc3Cc3ccccc3C2C1 (stereo not drawn) [MIANSERIN] | HH: Evidence of human hepatotoxicity
COCC(=O)O[C@]1(CCN(C)CCCc2nc3ccccc3[nH]2)CCc2cc(F)ccc2[C@@H]1C(C)C [MIBEFRADIL] | NE: No evidence of hepatotoxicity in any species
Clc1ccc(COC(Cn2ccnc2)c2ccc(Cl)cc2Cl)c(Cl)c1 (stereo not drawn) [MICONAZOLE] | NE: No evidence of hepatotoxicity in any species

SMILES | Hepatotoxicity
C=C1C(=O)N[C@H](C)C(=O)N[C@@H](CC(C)C)C(=O)N[C@@H](C(=O)O)[C@H](C)C(=O)N[C@@H](CCCNC(=N)N)C(=O)N[C@@H](/C=C/C(C)=C/[C@H](C)[C@H](Cc2ccccc2)OC)[C@H](C)C(=O)N[C@@H](C(=O)O)CCC(=O)N1C [MICROCYSTIN-LR] (R[Adda][d(γGlu)][NMeDha][dA]L[dAsp(3S-Me)]-OH; lactam N-7) | AH: Evidence for animal hepatotoxicity but not tested in humans
CN(C)c1ccc(O)c2c1C[C@H]1C[C@H]3[C@H](N(C)C)C(O)=C(C(N)=O)C(=O)[C@@]3(O)C(O)=C1C2=O.Cl [MINOCYCLINE HYDROCHLORIDE] | HH: Evidence of human hepatotoxicity
Cl.Cl.O=C1c2c(O)ccc(O)c2C(=O)c2c(NCCNCCO)ccc(NCCNCCO)c21 [MITOXANTRONE HYDROCHLORIDE] | HH: Evidence of human hepatotoxicity
CCc1c(C)[nH]c2c1C(=O)C(CN1CCOCC1)CC2.Cl (stereo not drawn) [MOLINDONE HYDROCHLORIDE] | HH: Evidence of human hepatotoxicity
C[C@@H]1C[C@H]2[C@@H]3CCC4=CC(=O)C=C[C@]4(C)[C@@]3(Cl)[C@@H](O)C[C@]2(C)[C@@]1(OC(=O)c1ccco1)C(=O)CCl [MOMETASONE FUROATE] | NE: No evidence of hepatotoxicity in any species
C[C@H]1C(=O)O[C@@H]2CCN3CC=C(COC(=O)[C@](C)(O)[C@]1(C)O)[C@H]23 [MONOCROTALINE] | AH: Evidence for animal hepatotoxicity but not tested in humans
CC(C)(O)c1ccccc1CC[C@@H](SCC1(CC(=O)O)CC1)c1cccc(/C=C/c2ccc3ccc(Cl)cc3n2)c1 [MONTELUKAST] | WE: Weak evidence (<10 case reports) of human hepatotoxicity
CCOC(=O)Nc1ccc2c(c1)N(C(=O)CCN1CCOCC1)c1ccccc1S2.Cl [MORICIZINE HYDROCHLORIDE] | HH: Evidence of human hepatotoxicity
CO[C@@]1(NC(=O)C(C(=O)[O-])c2ccc(O)cc2)C(=O)N2C(C(=O)[O-])=C(CSc3nnnn3C)CO[C@@H]21.[Na+].[Na+] (stereo partly drawn) [MOXALACTAM DISODIUM] | NE: No evidence of hepatotoxicity in any species
CN(C)N=O [N-NITROSODIMETHYLAMINE] | AH: Evidence for animal hepatotoxicity but not tested in humans
CC(C)(C)NCC(O)COc1cccc2c1CC(O)C(O)C2 (stereo not drawn) [NADOLOL] | NE: No evidence of hepatotoxicity in any species
CCOc1ccc2ccccc2c1C(=O)N[C@@H]1C(=O)N2[C@@H]1SC(C)(C)[C@@H]2C(=O)[O-].O.[Na+] [NAFCILLIN SODIUM] | WE: Weak evidence (<10 case reports) of human hepatotoxicity
CCn1cc(C(=O)O)c(=O)c2ccc(C)nc21 [NALIDIXIC ACID] | HH: Evidence of human hepatotoxicity
O=C1CC[C@@]2(O)[C@H]3Cc4ccc(O)c5c4[C@@]2(CCN3CC2CC2)[C@H]1O5 [NALTREXONE] | HH: Evidence of human hepatotoxicity
COc1ccc2cc([C@H](C)C(=O)O)ccc2c1 [NAPROXEN] | WE: Weak evidence (<10 case reports) of human hepatotoxicity
CCc1nn(CCCN2CCN(c3cccc(Cl)c3)CC2)c(=O)n1CCOc1ccccc1 [NEFAZODONE] | HH: Evidence of human hepatotoxicity
COC(=O)C1=C(C)NC(C)=C(C(=O)OCCN(C)Cc2ccccc2)C1c1cccc([N+](=O)[O-])c1.Cl (stereo not drawn) [NICARDIPINE HYDROCHLORIDE] | HH: Evidence of human hepatotoxicity
COC(=O)C1=C(C)NC(C)=C(C(=O)OC)C1c1ccccc1[N+](=O)[O-] [NIFEDIPINE] | HH: Evidence of human hepatotoxicity
COCCOC(=O)C1=C(C)NC(C)=C(C(=O)OC(C)C)C1c1cccc([N+](=O)[O-])c1 (stereo not drawn) [NIMODIPINE] | HH: Evidence of human hepatotoxicity
COC(=O)C1=C(C)NC(C)=C(C(=O)OCC(C)C)C1c1ccccc1[N+](=O)[O-] (stereo not drawn) [NISOLDIPINE] | NE: No evidence of hepatotoxicity in any species

SMILES | Hepatotoxicity
O=C1CN(/N=C/c2ccc([N+](=O)[O-])o2)C(=O)N1 [NITROFURANTOIN] | HH: Evidence of human hepatotoxicity
COC(=O)Nc1nc2ccc(C(=O)c3cccs3)cc2[nH]1 [NOCODAZOLE] | NE: No evidence of hepatotoxicity in any species
CN1Cc2c(N)cccc2C(c2ccccc2)C1 (stereo not drawn) [NOMIFENSINE] | HH: Evidence of human hepatotoxicity
C#CC1(O)CC[C@H]2[C@@H]3CCC4=CC(=O)CC[C@@H]4[C@H]3CC[C@@]21CC (stereo partly drawn) [NORGESTREL] | HH: Evidence of human hepatotoxicity
CNCCC=C1c2ccccc2CCc2ccccc21.Cl [NORTRIPTYLINE HYDROCHLORIDE] | HH: Evidence of human hepatotoxicity
CO[C@@H]1[C@@H](OC(N)=O)[C@@H](O)[C@H](Oc2ccc3c(O)c(NC(=O)c4ccc(O)c(CC=C(C)C)c4)c(=O)oc3c2C)OC1(C)C [NOVOBIOCIN] | HH: Evidence of human hepatotoxicity
CCCCC(CC)COC(=O)C=Cc1ccc(OC)cc1 (stereo not drawn) [OCTINOXATE] | HH: Evidence of human hepatotoxicity
Cc1ccccc1C(OCCN(C)C)c1ccccc1.O=C(O)CC(O)(CC(=O)O)C(=O)O (stereo not drawn) [ORPHENADRINE CITRATE] | NE: No evidence of hepatotoxicity in any species
O=C(O)CCc1nc(-c2ccccc2)c(-c2ccccc2)o1 [OXAPROZIN] | HH: Evidence of human hepatotoxicity
CCCOc1ccc2nc(NC(=O)OC)[nH]c2c1 [OXIBENDAZOLE] | AH: Evidence for animal hepatotoxicity but not tested in humans
CC[N+](C)(CC)CCOC(=O)C(O)(c1ccccc1)C1CCCCC1 (stereo not drawn) [OXYPHENONIUM] | NE: No evidence of hepatotoxicity in any species
O=S(=O)(O)O.Oc1cccc2cccnc12.Oc1cccc2cccnc12 [OXYQUINOLINE SULFATE] | HH: Evidence of human hepatotoxicity
CC(=O)O[C@H]1C(=O)[C@@]2(C)[C@H]([C@H](OC(=O)c3ccccc3)[C@]3(O)C[C@H](OC(=O)[C@H](O)[C@@H](NC(=O)c4ccccc4)c4ccccc4)C(C)=C1C3(C)C)[C@]1(OC(C)=O)CO[C@@H]1C[C@@H]2O [PACLITAXEL] | HH: Evidence of human hepatotoxicity
NCCC(O)(P(=O)(O)O)P(=O)(O)O [PAMIDRONIC ACID] | NE: No evidence of hepatotoxicity in any species
C#CCN(C)Cc1ccccc1 [PARGYLINE] | NE: No evidence of hepatotoxicity in any species
NC[C@@H]1O[C@H](O[C@H]2[C@@H](O)[C@H](O[C@@H]3[C@@H](O)[C@H](N)C[C@H](N)[C@H]3O[C@H]3O[C@H](CO)[C@@H](O)[C@H](O)[C@H]3N)O[C@@H]2CO)[C@H](N)[C@@H](O)[C@@H]1O.O=S(=O)(O)O [PAROMOMYCIN SULFATE] | NE: No evidence of hepatotoxicity in any species
Fc1ccc([C@@H]2CCNC[C@H]2COc2ccc3c(c2)OCO3)cc1 [PAROXETINE] | WE: Weak evidence (<10 case reports) of human hepatotoxicity
NC1=NC(=O)C(c2ccccc2)O1 (stereo not drawn) [PEMOLINE] | HH: Evidence of human hepatotoxicity
